Measurements taken from patent US7884067B2, “Peptides derived from cadherin and methods of use thereof” (Mount Sinai School of Medicine of New York University, priority 2001, dated 2011).

Assays:
[1] = test system: c-fos; experiment: c-fos mRNA (RT-PCR) and protein (Western blot) in N2a cells; format: cell-based, mouse
Experimental: Reverse Transcriptase (RT)-PCR Analysis. Total RNA was extracted from cells using a RNeasy Mini Kit (Qiagen) according to instructions by the manufacturer. Analysis of gene expression was performed using semiquantitative RT-PCR. The following primers were used: 5′-[…]-3′ (SEQ ID NO: 13) and 5′-[…]-3′ (SEQ ID NO: 14) for c-fos; 5′-[…]-3′ (SEQ ID NO: 15) and 5′-[…]-3′ (SEQ ID NO: 16) for gapdh.
N2a cells co-transfected with plasmids pCRE-luc, pFC-PKA, and pSV-β-galactosidase were incubated for 16 hours with DMSO or with L-685,458 ([…]) and CRE-dependent transactivation was measured as described above. Data in FIG. 10A are the mean+/−s.e. of 3 experiments normalized to β-galactosidase activity and protein concentration. *, P<0.05 (Student's t test). Total RNA isolated from N2a cells treated either with DMSO or with L-685,458, was analyzed by semiquantitative RT-PCR using specific primers for c-fos and gapdh. The graph in FIG. 10B represents the relative abundance of c-fos-specific PCR products following quantitation of the mRNA signals shown in the upper panel. Extract from N2a cells treated either with DMSO or with L-685,458, were probed on WBs with anti-c-fos or anti-β-tubulin antibodies. Extract from PS1+/+ or PS1−/− mouse fibroblasts were probed on WBs with either anti-c-fos or anti-β-tubulin antibodies. Extract from PS1+/− or PS1−/− mouse embryonic brains were probed on WBs with anti-c-fos (FIG. 10E, upper panel), anti-b-tubulin (FIG. 10E, middle panel), or anti-PS1/CTF (FIG. 10E, lower panel) antibodies.

[2] = test system: A431 cells; experiment: Laser scanning confocal microscopy of ionomycin-induced cell-cell dissociation; format: cell-based, human; conditions: 30 minutes pre-incubation with L-685,458, then ionomycin 45 minutes
Experimental: Immunoprecipitations (IPs), immunoblotting, immunofluorescence and confocal microscopy. For WB analysis of cell extracts, cells were washed with PBS and then solubilized in RIPA buffer. For IPs cells were solubilized in Hepes buffer (25 mM Hepes [pH 7.4], 150 mM NaCl, 1× Complete protease inhibitor cocktail, Roche) containing 1% digitonin (IPs with I-R222 and PI-R222 antibodies) or 1% Triton X-100 (IPs with β-catenin and desmoglein antibodies). Following centrifugation at 17,000×g for 10 min, supernatants (1 mg protein) were pre-cleared with protein A- or protein G-agarose (Pierce) for 2 hours. Supernatants were then incubated with antibodies overnight at 4° C. and treated for 2 hours with protein A-agarose (polyclonal antibodies) or with protein G-agarose (monoclonal antibodies). IPs were washed with Hepes buffer containing either 1% digitonin or 1% Triton X-100 and analyzed by SDS-PAGE. Immunofluorescence and confocal microscopy was performed as described by Georgakopoulos et al., (1999). Briefly, cells were plated on 22×22 mm collagen-coated glass coverslips, fixed in cold methanol for 10 min at −20° C. Following washing in TBS (25 mM Tris-HCl [pH 7.4], 150 mM NaCl), cells were treated with 10% goat serum in SuperBlock (Pierce) for 1 hour, incubated overnight with primary antibody (1:100), washed in TBS and then were incubated with species specific Alexa Fluor™ secondary antibody conjugates (Molecular Probes). Cells were washed with TBS, mounted with Prolong antifade kit (Molecular Probes), and photographed on a Leica confocal laser scanning microscope.
The PS1/γ-secretase role in the disassembly of CAJ was further examined using laser scanning confocal microscopy (LSCM). A431 cells were pre-incubated for 30 minutes in the absence or presence of L-685,458 and then treated for 45 minutes with ionomycin. Following the ionomycin-induced cell-cell dissociation, the distribution of PS1, E-cadherin, β-catenin and α-catenin was analyzed by LSCM using the constant detector setting. […]

Compound: CC(C)C[C@H](NC(=O)[C@H](Cc1ccccc1)C[C@@H](O)[C@H](Cc1ccccc1)NC(=O)OC(C)(C)C)C(=O)N[C@@H](Cc1ccccc1)C(N)=O [L-685,458]
- gapdh mRNA and β-tubulin ([1]; L-685,458, FIGS. 10B and 10C): remained unchanged
- c-fos mRNA ([1]; L-685,458 vs untreated controls, FIG. 10B): stimulated
- c-fos protein ([1]; L-685,458 vs untreated controls, FIG. 10C): stimulated
- loss of cell surface staining of all epitopes [2]: significantly delayed
